Legend:
NOX2 = target: T1, NOX2 (Homo sapiens, UniProt P14598); assay: NADPH oxidase (NOX2) inhibition, DCF fluorescence in PMA-activated neutrophil-differentiated HL-60 cells; assay type: cell-based; settings: for IC50: neutrophil-differentiated HL-60 cells, PMA 0.8 µM, DCF fluorescence, 0.05 to 50 µM
T1 construct: HL-60 cells expressed the components of NOX2, including gp91, p22^phox, p47^phox, and p67^phox; endogenous in cells; whole cells in A1, membrane preparations in A3 and A4
T1 sequence (P14598 1-390): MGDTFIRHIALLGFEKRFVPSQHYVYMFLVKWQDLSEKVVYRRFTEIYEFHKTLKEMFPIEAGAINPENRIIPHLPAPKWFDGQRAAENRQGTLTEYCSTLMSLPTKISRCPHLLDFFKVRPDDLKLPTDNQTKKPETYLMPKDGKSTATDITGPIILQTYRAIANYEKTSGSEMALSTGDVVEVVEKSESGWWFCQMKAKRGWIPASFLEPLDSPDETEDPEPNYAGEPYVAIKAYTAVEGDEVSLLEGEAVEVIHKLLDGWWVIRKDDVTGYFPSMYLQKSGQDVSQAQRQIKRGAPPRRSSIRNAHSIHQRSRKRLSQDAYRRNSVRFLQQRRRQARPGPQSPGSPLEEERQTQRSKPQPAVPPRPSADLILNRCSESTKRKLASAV
Description: The differentiation of HL-60 cells to neutrophils was performed after reaching a concentration of between 2 × 10^6 and 5 × 10^6 cells/mL in the differentiation medium: RPMI 1640 medium; 10% FBS; 100 IU/mL of penicillin/streptomycin; and 1.3% DMSO for 7 days, replenishing the differentiation medium every 2 days.
The 2′,7′-dichlorofluorescein (DCF) fluorescence analysis was used to determine NADPH oxidase activity in neutrophil-differentiated HL-60 cells. The method, based on a fluorimetric assay, was adapted from Boly et al.. Briefly, 1 × 10^6 neutrophil-differentiated HL-60 cells/mL were incubated for 45 min. at 37 °C in darkness with DCF-DA (1 mg/mL). The cell suspension was then transferred to a 15 mL conical tube and centrifuged at 330× g × 10 min at 37 °C. After the supernatant was removed, the cells were re-suspended in Hanks balanced saline buffer (HBSS, Sigma-Aldrich, St. Louis, MO, USA) and transferred to dark 96-well plates with a flat glass bottom (Thermo Scientific Nunc 96 microwell® black, Optical Botton # 1.5 Cover Glass Base, Thermo Fisher Scientific). Then, 200 μL of cell suspension per well were incubated at 37 °C for 30 min with the indole heteroaryl-acrylonitriles at increasing concentrations (0.05 to 50 μM). […] Finally, PMA (0.8 μM) was added to each well for 10 min. to generate the activation of NOX2. The generation of the DCF fluorescence product was monitored in an automatic microplate reader (FLx800, BioTek Instruments, Winooski, VT, USA) at 1-min intervals at 37 °C for 1 h, using an excitation wavelength of 485 nm and an emission wavelength of 555 nm. The ability to inhibit ROS production by activated neutrophil-differentiated HL-60 cells was compared against the different controls. A control was performed with cells activated by PMA in the presence of DMSO and established as having 100% of the ROS-induced fluorescence. Inhibition control was performed in the presence of VAS2870 (20 µM) and activated by PMA. Another control (NA, not activated) was done with cells in the absence of PMA and the indole heteroaryl-acrylonitriles.
All the experiments were performed in triplicate, using three different cell preparations, and the data were reported as mean ± s.e.m. For the determination of the IC50 of the indole heteroaryl-acrylonitriles, concentration-response curves (0.05 to 50 μM) were constructed. IC50 values were given as the mean ± standard deviation for at least three independent assays. The data were analyzed using one- and two-way ANOVA. A value of p < 0.05 was considered statistically significant. Statistical analyses were performed using the program GraphPad Prism® version 6.00, San Diego, CA, USA.

MTT cytotoxicity assay = assay type: cell-based, human; settings: human; HL-60 cells, 24 h, 10 mM, MTT; read-out: cell viability
Description: (§1) To verify the cytotoxicity of the acrylonitrile derivatives, the MTT reduction method was performed. Briefly, HL-60 cells were seeded in a flat-bottomed 96-well plate at a density of 10,000 cells per well. […] In a second series of experiments, cells were incubated under the same conditions but for 72 h. Etoposide was used as a positive control. Ten μL of MTT was added at a final concentration of 0.5 mg/mL, incubated at 37 °C for 4 h, and then solubilized with 10% SDS in 0.1 mM HCl and incubated overnight at 37 °C. Finally, a blue-colored compound (formazan) formation was measured at 570 nm in a multiplate reader (StatFax 4200, Awareness Technology, Inc., Palm City, FL, USA). The viability percentage was obtained as follows: Viability % = [treated cells DO × 100]/[DO cells control].

HL-60 cells = assay: MTT cytotoxicity assay; assay type: cell-based, human; settings: 72 h, 0.01 µM to 100 µM, MTT
Description: as §1

[1] = DPPH radical scavenging activity; assay type: physicochemical
Description: The newly synthesized compounds were evaluated for 2,2-diphenyl-1-picrylhydrazyl […] free radical scavenging activity. The reduction and stabilization of DPPH by antioxidant compounds lead to discoloration, resulting in a decrease in absorbance at 517 nm, which was expressed as a percentage of the radical solution at a given concentration of discoloration. The heteroarylacrylonitrile derivatives were re-suspended in a minimum of DMSO at a final concentration of 5 mg/mL (stock solution). From these, they were diluted to concentrations of 1000, 500, and 100 μg/mL. These solutions were mixed with a methanol solution of DPPH (20 μg/mL) for 5 min. Each compound was evaluated in triplicate; absorbance at 517 nm in a UNICAM UV/visible spectrophotometer Helios-α (Thermo Electron Corporation, Waltham, MA USA) was measured by subtracting the solvent absorbance and comparing the resulting value with that of a blank sample. The percentage of discoloration was established according to the following formula: % Radical removal or discoloration = (1 − (AM − ABM)/AC) × 100, where AM is the absorbance of the sample compound, ABM is the absorbance of the sample blank, and AC is the absorbance of the control. The degree of discoloration indicates the efficacy of the compounds studied as free radical scavengers; therefore, a percentage of discoloration of 100 indicates the maximum radical scavenging capacity and a value close to 0 indicates a zero radical scavenging capacity. Quercetin was used as a reference compound in a concentration range of 1.25 to 7.5 μg/mL.

| Compound | IC50 (NOX2) [µM] | also measured |
| --- | --- | --- |
| N#C/C(=C\c1ccc(-c2ccc(Cl)cc2)o1)C(=O)c1c[nH]c2ccccc12 [Compound C1] | 21.5 ± 0.3 | viability at 24 h, 10 mM (MTT cytotoxicity assay): 60% |
| Cc1nn(-c2ccccc2)c(Cl)c1/C=C(\C#N)C(=O)c1c[nH]c2ccccc12 [Compound C2] | 7.2 ± 0.3 |  |
| N#C/C(=C\c1ccc(-c2ccccc2)cc1)C(=O)c1c[nH]c2ccccc12 [Compound C3] |  | cytotoxicity (in words) (HL-60 cells): non-cytotoxic |
| N#C/C(=C\c1ccc(N2CCOCC2)cc1)C(=O)c1c[nH]c2ccccc12 [Compound C4] | 7.1 ± 0.4 | antioxidant capacity, DPPH discoloration (in words) [1]: showed antioxidant capacity only at very high concentrations; viability at 24 h, 10 mM (MTT cytotoxicity assay): 60% |
| N#C/C(=C\c1cc(-c2ccc(F)cc2)on1)C(=O)c1c[nH]c2ccccc12 [Compound C5] | 6.2 ± 0.4 |  |
| N#C/C(=C\c1ccc(-c2ccc([N+](=O)[O-])cc2)o1)C(=O)c1c[nH]c2ccccc12 [Compound C7] | 68.1 ± 1.2 |  |
| CC(C)c1ccc2occ(/C=C(\C#N)C(=O)c3c[nH]c4ccccc34)c(=O)c2c1 [Compound C8] | 17.1 ± 0.2 | antioxidant capacity, DPPH discoloration (in words) [1]: showed antioxidant capacity only at very high concentrations; viability at 24 h, 10 mM (MTT cytotoxicity assay): 60% |
| Cc1ccc2occ(/C=C(\C#N)C(=O)c3c[nH]c4ccccc34)c(=O)c2c1 [Compound C9] | 4.7 ± 0.3 | antioxidant capacity, DPPH discoloration (in words) [1]: showed antioxidant capacity only at very high concentrations; inhibition of NOX2-derived ROS production (in words) (NOX2; PMA-activated HL-60 cells, 0.05 µM to 50 µM): exhibited concentration-dependent inhibition of NOX2; cytotoxicity (in words) (HL-60 cells): non-cytotoxic |
| N#C/C(=C\c1coc2ccccc2c1=O)C(=O)c1c[nH]c2ccccc12 [Compound C10] | 9.4 ± 0.3 | viability at 24 h, 10 mM (MTT cytotoxicity assay): 60% |
| CCc1ccc2occ(/C=C(\C#N)C(=O)c3c[nH]c4ccccc34)c(=O)c2c1 [Compound C11] | 19.9 ± 0.2 |  |

Second part, led by results:

| IC50 (NOX2) [µM] | Compound | also measured |
| --- | --- | --- |
| 21.1 ± 0.2 | N#C/C(=C\c1c(N)oc2ccccc2c1=O)C(=O)c1c[nH]c2ccccc12 [Compound C12] |  |
| 16.3 ± 0.2 | N#C/C(=C\c1cccnc1)C(=O)c1c[nH]c2ccccc12 [Compound C13] |  |
| 30.4 ± 0.3 | CC(C)(C)OC(=O)N1CCN(c2ccc(/C=C(\C#N)C(=O)c3c[nH]c4ccccc34)cc2)CC1 [Compound C15] |  |
| 82.7 ± 0.2 | N#C/C(=C\c1ccco1)C(=O)c1c[nH]c2ccccc12 [Compound C16] |  |
| 19.7 ± 0.2 | CC(=O)OCc1ccc(/C=C(\C#N)C(=O)c2c[nH]c3ccccc23)o1 [Compound C17] |  |
| 51.3 ± 0.2 | N#C/C(=C\c1ncc[nH]1)C(=O)c1c[nH]c2ccccc12 [Compound C18] |  |
| 69.3 ± 0.2 | Cn1ccnc1/C=C(\C#N)C(=O)c1c[nH]c2ccccc12 [Compound C19] |  |

Reference: paper PMC10376059, “New NADPH Oxidase 2 Inhibitors Display Potent Activity against Oxidative Stress by Targeting p22^phox-p47^phox Interactions” (Antioxidants, 2023)
